Test results taken from article PMC8270270, “Rosin Derivatives as a Platform for the Antiviral Drug Design” (Molecules, 2021).
Where two headings read alike, the source gives them in different places.

Tests used:
Escherichia coli = test: Disco-diffuse method, antibacterial activity; assay type: cell-based; conditions: for Antibacterial activity (in words): 1-50 mg/mL
Method: (§1) The determination of compounds (I, IV, VI–XI) effect concerning microorganisms was carried out using test strains of Escherichia coli, Bacillus subtilis, and Candida tropicalis. They are not only natural inhabitants of natural biocenoses but also a part of human microbiocenosis. Used microorganisms of bacteria were selected as representatives of the Gram-positive and Gram-negative human microbiota. The antibacterial activity of compounds (I, IV, VI–XI) was studied by the disco-diffuse method. The strain culture was transferred sterile from the mown agar into test tubes with 5 mL of nutrient medium to obtain a “night culture” 12–15 h before the experiment. Beef-extract agar (BEA) was used as a nutrient medium for the development of bacterial cells, and Sabouraud’s medium was used for yeast. Bacterial cultures were incubated in a thermostat at 37 °C, and yeast cultures at 32 °C. The melted BEA was poured sterile into Petri dishes (diameter 90 mm) and evenly distributed over the bottom of the dish, covered with a lid, and left on the table until it solidified completely. Next, the dishes with BEA were inoculated with a “lawn” by introducing a strain culture (suspension titer −1–2 × 10^8 CFU/mL) in an amount of 500 µL and evenly distributing it with a sterile spatula. The dishes were left for 60–90 min to dry the culture. Compounds (I, IV, VI–XI) were previously dissolved, and the sequential dilutions were applied to disks. Dimethyl sulfoxide (DMSO) was used as a solvent for the DAA. Water was used as a solvent for their potassium salts. […] This disk was impregnated with a solution of the test compound amounting to 100 μL and incubated in the dark for 24 h at 37 °C (Escherichia coli and Bacillus subtilis) and 48 h at 32 °C (Candida tropicalis). The solution diffuses, forming a concentration gradient of the test compound around the disc. After the incubation period, the inhibition zone or stimulation of microbial growth around the disk was measured in the experimental and control samples. A conclusion was made about the degree (bactericidal) toxicity of compounds. Solvent-treated disks (DMSO) were used as controls. The experiments were performed three times.

Bacillus subtilis = test: Disco-diffuse method, antibacterial activity; assay type: cell-based; conditions: for Antibacterial activity (in words): 1-50 mg/mL
Method: as §1

Candida tropicalis = test: Disco-diffuse method, fungicidal activity; assay type: cell-based; conditions: for Fungicidal activity (in words): 1-50 mg/mL
Method: as §1

A549 cell culture = test: Cytotoxicity, colorimetric MTT assay; assay type: cell-based, human; conditions: for Cytotoxicity (in words): A549, MTT assay; for IC50: Homo sapiens, read-out: Determined IC50; for Cell viability (in words) / Decrease in viable cells: at the working concentrations used to assess antiviral activity
Method: The cytotoxicity of compounds (I–V) was assessed on A549 cell culture using a colorimetric MTT assay. A549 cells were incubated for 24 h at 37 °C, 5% CO2 with solutions of the studied compounds at various concentrations. Next, the cell monolayer was washed, and MTT solution was added in a volume of 0.1 mL at a concentration of […]. After 1 h of MTT contact with the cells, the wells were washed, and the formed formazan crystals were dissolved in 0.1 mL of DMSO. The results were recorded at 560 nm on a CLARIOstar Plus plate photometer (BMG LABTECH, Ortenberg, Germany). The IC50 was calculated using GraphPad Prism 6.0.

[1] = tested on: A/California/07/09 ((A)H1N1pdm09) viral strain; assay type: cell-based, influenza virus; conditions: for Antiviral activity (in words): A549, in vitro
[2] = A549, therapeutic scheme, 24 h after stimulation, working concentration
[3] = compound concentration 1 mg/mL, 24 h at 37 °C
[4] = compound concentration 5 mg/mL, 24 h at 37 °C
[5] = compound concentration 10 mg/mL, 24 h at 37 °C
[6] = compound concentration 25 mg/mL, 24 h at 37 °C
[7] = compound concentration 50 mg/mL, 24 h at 37 °C

With `CC(C)c1cc2c(cc1S(=O)(=O)O)C1(C)CCCC(C)(C(=O)O)C1CC2` (stereo not shown) [I, 12-sulfodehydroabietic acid] the “Antibacterial activity (in words)” value (Escherichia coli) was “did not show either antibacterial activity or fungicidal activity”, the zone of inhibition at 1000 µg/mL (Escherichia coli; Escherichia coli, compound concentration 1 mg/mL, 24 h at 37 °C, read-out: The Zone of Growth Inhibition) was 0 mm and the zone of inhibition at 5000 µg/mL (Escherichia coli; Escherichia coli, compound concentration 5 mg/mL, 24 h at 37 °C, read-out: The Zone of Growth Inhibition) was 0 mm. It also gave a zone of inhibition at 10000 µg/mL (Escherichia coli; Escherichia coli, compound concentration 10 mg/mL, 24 h at 37 °C, read-out: The Zone of Growth Inhibition) of 0 mm, a zone of inhibition at 25000 µg/mL (Escherichia coli; Escherichia coli, compound concentration 25 mg/mL, 24 h at 37 °C, read-out: The Zone of Growth Inhibition) of 0 mm and a zone of inhibition at 50000 µg/mL (Escherichia coli; Escherichia coli, compound concentration 50 mg/mL, 24 h at 37 °C, read-out: The Zone of Growth Inhibition) of 0 mm. For the same molecule, the “Antibacterial activity (in words)” value (Bacillus subtilis) was “did not show either antibacterial activity or fungicidal activity”, the zone of inhibition at 1000 µg/mL (Bacillus subtilis; Bacillus subtilis, compound concentration 1 mg/mL, 24 h at 37 °C, read-out: The Zone of Growth Inhibition) was 0 mm and the zone of inhibition at 5000 µg/mL (Bacillus subtilis; Bacillus subtilis, compound concentration 5 mg/mL, 24 h at 37 °C, read-out: The Zone of Growth Inhibition) was 0 mm. The zone of inhibition at 10000 µg/mL (Bacillus subtilis; Bacillus subtilis, compound concentration 10 mg/mL, 24 h at 37 °C, read-out: The Zone of Growth Inhibition) was 0 mm, the zone of inhibition at 25000 µg/mL (Bacillus subtilis; Bacillus subtilis, compound concentration 25 mg/mL, 24 h at 37 °C, read-out: The Zone of Growth Inhibition) was 0 mm and the zone of inhibition at 50000 µg/mL (Bacillus subtilis; Bacillus subtilis, compound concentration 50 mg/mL, 24 h at 37 °C, read-out: The Zone of Growth Inhibition) was 0 mm. For the same molecule, the “Fungicidal activity (in words)” value (Candida tropicalis) was “did not show either antibacterial activity or fungicidal activity”, the zone of inhibition at 1000 µg/mL (Candida tropicalis; Candida tropicalis, compound concentration 1 mg/mL, 48 h at 32 °C, read-out: The Zone of Growth Inhibition) was 0 mm and the zone of inhibition at 5000 µg/mL (Candida tropicalis; Candida tropicalis, compound concentration 5 mg/mL, 48 h at 32 °C, read-out: The Zone of Growth Inhibition) was 0 mm. The zone of inhibition at 10000 µg/mL (Candida tropicalis; Candida tropicalis, compound concentration 10 mg/mL, 48 h at 32 °C, read-out: The Zone of Growth Inhibition) was 0 mm, the zone of inhibition at 25000 µg/mL (Candida tropicalis; Candida tropicalis, compound concentration 25 mg/mL, 48 h at 32 °C, read-out: The Zone of Growth Inhibition) was 0 mm and the zone of inhibition at 50000 µg/mL (Candida tropicalis; Candida tropicalis, compound concentration 50 mg/mL, 48 h at 32 °C, read-out: The Zone of Growth Inhibition) was 0 mm. The “Cytotoxicity (in words)” value (A549 cell culture) was “weak toxicity”, the IC50 (A549 cell culture; A549, 24 h incubation, MTT assay) was > 518 µg/mL and the “Cell viability (in words)” value (A549 cell culture) was “did not cause a significant decrease in cell viability”. The “Antiviral activity (in words)” value ([1]; working concentration) was “did not show antiviral activity”.
In the case of `CC(C)C1=CC2=CCC3C(C)(C(=O)[O-])CCCC3(C)C2CC1.[K+]` (stereo not shown) [II, Potassium abietate], the “Cytotoxicity (in words)” value (A549 cell culture) is reported as “highest cytotoxicity”, the IC50 (A549 cell culture; A549, 24 h) is reported as 240 µg/mL and the “Decrease in viable cells” value (A549 cell culture) is reported as 50%. For the same molecule, the Dose-dependent antiviral effect [1] was “led to a decrease in the antiviral effect”, the “Content of viral protein NP inside the cells (ELISA)” value [1, 2] was “decrease in the content of the viral protein NP inside the cells” and the “Viral load in supernatants obtained from cells (NP ELISA), vs control” value [1, 2] was “slight decrease in the viral load”.
For `CC(C)c1cc2c(cc1Br)C1(C)CCCC(C)(C(=O)[O-])C1CC2.[K+]` (stereo not shown) [III, Potassium 12-bromodehydroabietate], the “Cytotoxicity (in words)” value (A549 cell culture) was “highest cytotoxicity”, the IC50 (A549 cell culture; A549, 24 h) was 140 µg/mL and the “Decrease in viable cells” value (A549 cell culture) was 50%. For the same molecule, the “Content of viral protein NP inside the cells (ELISA)” value [1, 2] was “decrease in the content of the viral protein NP inside the cells”.
With `CC(C)c1cc2c(cc1S(=O)(=O)[O-])C1(C)CCCC(C)(C(=O)[O-])C1CC2.[K+].[K+]` (stereo not shown) [IV, Potassium 12-sulfodehydroabietate] the “Antibacterial activity (in words)” value (Escherichia coli) was “did not show either antibacterial activity or fungicidal activity”, the “The Zone of Growth Inhibition” value (Escherichia coli; [3]) was 0 mm and the “The Zone of Growth Inhibition” value (Escherichia coli; [4]) was 0 mm. The “The Zone of Growth Inhibition” value (Escherichia coli; [5]) was 0 mm, the “The Zone of Growth Inhibition” value (Escherichia coli; [6]) was 0 mm and the “The Zone of Growth Inhibition” value (Escherichia coli; [7]) was 0 mm. For the same molecule, the “Antibacterial activity (in words)” value (Bacillus subtilis) was “did not show either antibacterial activity or fungicidal activity”, the “The Zone of Growth Inhibition” value (Bacillus subtilis; [3]) was 0 mm and the “The Zone of Growth Inhibition” value (Bacillus subtilis; [4]) was 0 mm. The “The Zone of Growth Inhibition” value (Bacillus subtilis; [5]) was 0 mm, the “The Zone of Growth Inhibition” value (Bacillus subtilis; [6]) was 0 mm and the “The Zone of Growth Inhibition” value (Bacillus subtilis; [7]) was 0 mm. For the same molecule, the “Fungicidal activity (in words)” value (Candida tropicalis) was “did not show either antibacterial activity or fungicidal activity”, the “The Zone of Growth Inhibition” value (Candida tropicalis; compound concentration 1 mg/mL, 48 h at 32 °C) was 0 mm and the “The Zone of Growth Inhibition” value (Candida tropicalis; compound concentration 5 mg/mL, 48 h at 32 °C) was 0 mm. The “The Zone of Growth Inhibition” value (Candida tropicalis; compound concentration 10 mg/mL, 48 h at 32 °C) was 0 mm, the “The Zone of Growth Inhibition” value (Candida tropicalis; compound concentration 25 mg/mL, 48 h at 32 °C) was 0 mm and the “The Zone of Growth Inhibition” value (Candida tropicalis; compound concentration 50 mg/mL, 48 h at 32 °C) was 0 mm. The “Cytotoxicity (in words)” value (A549 cell culture) was “weak toxicity”, the IC50 (A549 cell culture; A549, 24 h) was > 431 µg/mL and the “Cell viability (in words)” value (A549 cell culture) was “did not cause a significant decrease in cell viability”. For the same molecule, the Dose-dependent antiviral effect [1] was “did not significantly reduce the viral load” and the “Antiviral activity (in words)” value ([1]; working concentration) was “did not show antiviral activity”.
